Reference: ChEMBL document CHEMBL1145167, “Design and synthesis of 4-(alpha-hydroxymalonyl)phenylalanine as a new phosphotyrosyl mimetic and its use in growth factor receptor bound 2 src-homology 2 (Grb2 SH2) domain-binding peptides” (J Med Chem, 2005)

What follows are compounds tested against T1, Growth factor receptor-bound protein 2 (Homo sapiens, UniProt P62993) (assay: Inhibition of Grb2 SH2 domain binding in ELISA).

Row | IC50 [nM] | Structure (SMILES)
1 | 47 | CC(=O)N[C@@H](Cc1ccc(OP(=O)(O)O)cc1)C(=O)NC1(C(=O)N[C@@H](CC(N)=O)C(=O)NCCCc2cccc3ccccc23)CCCCC1

Each compound was assayed against T1, Growth factor receptor-bound protein 2 (assay: Steady-state affinity constant for Grb2 SH2 domain binding by surface plasmon resonance).

Row | Structure (SMILES) | Keq [µM]
2 | NC(=O)C[C@H](NC(=O)C1(NC(=O)[C@H](Cc2ccc(C(C(=O)O)C(=O)O)cc2)NC(=O)C(=O)O)CCCCC1)C(=O)NCCCc1cccc2ccccc12 | 0.149
3 | NC(=O)C[C@H](NC(=O)C1(NC(=O)[C@H](Cc2ccc(C(O)C(=O)O)cc2)NC(=O)C(=O)O)CCCCC1)C(=O)NCCCc1cccc2ccccc12 (stereo partly specified) | 1.54
4 | NC(=O)C[C@H](NC(=O)C1(NC(=O)[C@H](Cc2ccc(C(O)(C(=O)O)C(=O)O)cc2)NC(=O)C(=O)O)CCCCC1)C(=O)NCCCc1cccc2ccccc12 | 0.27

More lines, now with the values ahead:

Row | Keq [µM] | Structure (SMILES)
5 | 0.24 | CC(=O)N[C@@H](Cc1ccc(OP(=O)(O)O)cc1)C(=O)NC1(C(=O)N[C@@H](CC(N)=O)C(=O)NCCCc2cccc3ccccc23)CCCCC1
6 | 6.11 | NC(=O)C[C@H](NC(=O)C1(NC(=O)[C@H](Cc2ccc(CC(=O)O)cc2)NC(=O)C(=O)O)CCCCC1)C(=O)NCCCc1cccc2ccccc12
